Reference: patent US20090124678A1, “Combined Use of Metconazole and Epoxiconazole for Reducing or Preventing the Contamination of Cereals With Mycotoxins” (priority 2005, published 2009)

How the values were obtained:
deoxynivalenol (DON) = test: DON content of harvested wheat grains after field treatment (extraction, HPLC/MS); assay type: in vivo, Fusarium sp. on winter wheat cultivar "Ritmo"; details: relative to untreated wheat (33.7 mg/kg DON), sprayed at GS 63, metconazole 45 g/ha, epoxyconazole 75 g/ha
Protocol: (§1) At growth stage GS 25-29 (tillering), outdoor winter wheat of the cultivar “Ritmo” was inoculated with rye grains infected with Fusarium sp. The active compounds were applied at growth stage GS 63 (beginning of flowering). Both metconazole and epoxyconazole were used as finished formulations (metconazole: trade name “Caramba”; epoxyconazole: trade name “Opus”; metconazole as SL=[…]; epoxyconazole as SC=suspensible concentrate). These formulations were diluted with water to the desired concentration, and the plants were treated by spraying with these diluted preparations. The active compounds were applied jointly as a tank mix. For comparison, the individual fungicides were also only employed on their own. Three weeks after application, the infection of the ears with Fusarium fungi was determined visually. The wheat grains were harvested and the DON content of the grains was determined after extraction and analysis by HPLC/MS. For comparative evaluation, the Fusarium infection and the DON value found for untreated wheat were defined as 100%. […] The expected efficacies for active compound combinations were determined using Colby's formula (S. R. Colby, Calculating Synergistic and Antagonistic Responses of Herbicide Combinations, Weeds, 15, pages 20-22, 1967) and compared with the observed efficacies.

Fusarium sp. = test: Fusarium ear infection of winter wheat under field conditions, determined visually; assay type: in vivo, Fusarium sp. on winter wheat cultivar "Ritmo"; details: winter wheat "Ritmo" inoculated with Fusarium sp. at GS 25-29, sprayed at GS 63, assessed three weeks after application, relative to untreated control, metconazole 45 g/ha, epoxyconazole 75 g/ha
Protocol: as §1

Row | Compound | Reduction of DON content [%] (deoxynivalenol (DON)) | Effect on infection [%] (Fusarium sp.)
1 | Fc1ccc([C@]2(Cn3cncn3)O[C@H]2c2ccccc2Cl)cc1 (racemic) [epoxyconazole] | 0% | 5%
2 | CC1(C)CCC(Cc2ccc(Cl)cc2)C1(O)Cn1cncn1 (stereo not shown) [metconazole] | 33% | 27%
